These are literature values, as cited in patent US12279614B2, “Photo-polymerizable, universal antimicrobial coating to produce high-performing, multi-functional face masks” (The Governors of the University of Alberta, priority 2022, dated 2025).

For this data set, the system named is Human Adenovirus Type 8. The note with it: incubation time 1 hr.

On to Benzalkonium chloride, for which the Inactivation efficiency is 1.01 log reduction.
